# Like-named read-outs stand apart in the source and are kept apart here.
# Key:
# P70S6K (T412E mutant) = P70S6K (T412E mutant) (Homo sapiens (Human), UniProt P23443, T412E); test: P70S6K enzyme assay; format: biochemical
# Description: P70S6K inhibitor compounds are diluted and plated in 96 well plates. […] The reaction is incubated for 90 min at 25° C., before the addition of 10 mM EDTA to stop the reaction. The proportion of substrate and product (phosphorylated) peptide is analysed on a Caliper Life Sciences Lab Chip 3000, using a pressure of −1.4 psi, and upstream and downstream voltages of −3000 and −700 respectively. Product peaks are resolved before substrate peaks on the resulting chromatograms.
# His-AKT (Full Length) = His-AKT (Full Length) (Homo sapiens (Human), UniProt P31749); test: AKT enzyme assay; format: biochemical
# His-AKT (Full Length), sequence (P31749 whole entry): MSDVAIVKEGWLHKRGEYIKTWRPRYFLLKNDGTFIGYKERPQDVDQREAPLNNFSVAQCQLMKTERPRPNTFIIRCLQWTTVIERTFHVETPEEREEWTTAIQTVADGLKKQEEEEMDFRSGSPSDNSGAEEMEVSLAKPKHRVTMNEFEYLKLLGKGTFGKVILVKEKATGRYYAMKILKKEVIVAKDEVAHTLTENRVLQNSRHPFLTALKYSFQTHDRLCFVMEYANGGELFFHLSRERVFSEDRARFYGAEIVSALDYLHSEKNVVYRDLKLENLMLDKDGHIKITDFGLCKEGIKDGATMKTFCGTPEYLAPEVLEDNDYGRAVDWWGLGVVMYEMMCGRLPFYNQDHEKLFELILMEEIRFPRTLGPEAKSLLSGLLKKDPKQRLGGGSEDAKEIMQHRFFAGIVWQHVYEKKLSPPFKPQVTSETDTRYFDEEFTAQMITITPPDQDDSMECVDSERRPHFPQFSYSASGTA
# Description: A TTP Mosquito liquid handling instrument is used to place 125n1 of the appropriate concentration of inhibitor in 100% DMSO (for a dose response curve calculation) into each well of a 384-well plate.
# The reaction is incubated for 90 min at 25 C, and then stopped by the addition of 70 μl of Stop buffer (100 mM HEPES pH 7.5, 0.015% Brij-35, 10 mM EDTA (Sigma, E7889)).
# The plate is read on a Caliper LC 3000 in an Off-Chip mobility shift assay format, using the following parameters for a 12-sipper chip: screening pressure −2.3 psi, upstream voltage −500, and downstream voltage −3000. These conditions cause unphosphorylated substrate and phosphorylated product peptide to resolve as separate peaks allowing direct measurement of percentage of conversion of substrate to product. The percent conversion can be plotted against concentration of inhibitor to produce a sigmoidal dose response curve, from which an IC50 can be calculated.
# P70S6K (T412E mutant), sequence (P23443 whole entry T412E): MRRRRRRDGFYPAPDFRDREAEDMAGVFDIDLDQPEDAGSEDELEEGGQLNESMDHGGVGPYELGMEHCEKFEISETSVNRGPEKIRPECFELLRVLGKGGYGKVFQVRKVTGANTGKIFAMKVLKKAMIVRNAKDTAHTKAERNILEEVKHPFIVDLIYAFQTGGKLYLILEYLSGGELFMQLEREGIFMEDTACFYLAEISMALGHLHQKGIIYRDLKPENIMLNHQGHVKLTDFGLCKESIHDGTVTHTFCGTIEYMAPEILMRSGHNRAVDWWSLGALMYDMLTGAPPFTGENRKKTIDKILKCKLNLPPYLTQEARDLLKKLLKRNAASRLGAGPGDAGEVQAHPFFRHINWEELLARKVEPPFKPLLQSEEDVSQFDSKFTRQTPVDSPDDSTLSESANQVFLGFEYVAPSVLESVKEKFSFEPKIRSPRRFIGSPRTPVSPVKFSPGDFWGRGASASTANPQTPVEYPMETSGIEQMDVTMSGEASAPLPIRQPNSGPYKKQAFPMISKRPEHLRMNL
Structure (SMILES),IC50 (P70S6K (T412E mutant); read-out: IC50 p70S6K),IC50 (His-AKT (Full Length); read-out: IC50 AKT),IC50 (P70S6K (T412E mutant); read-out: IC50 (p70S6K enzyme)),IC50 (His-AKT (Full Length); read-out: IC50 (AKT enzyme))
Nc1ncnc(N2CCC(c3nc(-c4ccc(F)c(C(F)(F)F)c4)cn3CCN3CCC3)CC2)c1-c1ccc(C(=O)O)cc1 [Compound 224],5.7 nM,12 nM,,
"CCN(C)Cc1c(N)ncnc1N1CCC(c2nc(-c3ccc(F)c(C(F)(F)F)c3)cn2CCN(C)C)CC1 [Compound 95, 6-(4-(1-(2-(dimethylamino)ethyl)-4-(4-fluoro-3-(trifluoromethyl)phenyl)-1H-imidazol-2-yl)piperidin-1-yl)-5-((ethyl(methyl)amino)methyl)pyrimidin-4-amine]",47 nM,520 nM,,
"Cc1cc(-c2cn(CC3CNC3)c(C3CCC(c4ncnc(N)c4C(C)C)CC3)n2)ccc1F (stereo not drawn) [Compound 194, 6-(4-(1-(azetidin-3-ylmethyl)-4-(4-fluoro-3-methylphenyl)-1H-imidazol-2-yl)cyclohexyl)-5-isopropylpyrimidin-4-amine]",3.4 nM,16 nM,,
CCc1c(N)ncnc1N1CCC(c2nc(-c3ccc(C(F)(F)F)c(F)c3)cn2CCN2CCCC(F)C2)CC1 (stereo not drawn) [Compound 250],5.7 nM,210 nM,,
CCc1c(N)ncnc1N1CCC(c2nc(-c3ccc(C(F)(F)F)c(F)c3)cn2CCN2CCCC2)CC1 [Compound 234],13 nM,470 nM,,
"CS(=O)(=O)c1cccc(-c2cn(CCN3CCC3)c(C3CCN(c4ncnc(N)c4C(N)=O)CC3)n2)c1 [Compound 356, 4-Amino-6-{4-[1-(2-azetidin-1-yl-ethyl)-4-(3-methanesulfonyl-phenyl)-1H-imidazol-2-yl]-piperidin-1-yl}-pyrimidine-5-carboxylic acid amide]",80 nM,560 nM,,
"Cc1cc(-c2cn(CCNC3CCCC3)c(C3CCN(c4ncnc(N)c4C(N)=O)CC3)n2)ccc1F [Compound 391, 4-Amino-6-{4-[1-(2-cyclopentylamino-ethyl)-4-(4-fluoro-3-methyl-phenyl)-1H-imidazol-2-yl]-piperidin-1-yl}-pyrimidine-5-carboxylic acid amide]",4 nM,5.6 nM,,
"NC(=O)c1c(N)ncnc1N1CCC(c2nc(-c3ccc(F)c(C(F)(F)F)c3)cn2C[C@@H]2CCN2)CC1 [Compound 150, (S)-4-amino-6-(4-(1-(azetidin-2-ylmethyl)-4-(4-fluoro-3-(trifluoromethyl)phenyl)-1H-imidazol-2-yl)piperidin-1-yl)pyrimidine-5-carboxamide]",10 nM,220 nM,,
CCN(CC)CCn1cc(-c2ccc(F)c(C)c2)nc1C1CCN(c2ncnc(N)c2OC(C)C)CC1 [Compound 304],4.6 nM,2.6 nM,,
"Cc1cc(-c2cn(CCNC3CC3)c(C3CCN(c4ncnc(N)c4-c4cn[nH]c4)CC3)n2)ccc1F [Compound 161, 6-(4-(1-(2-(cyclooropylamino)ethyl)-4-(4-fluoro-3-methylphenyl)-1H-imidazol-2-yl)piperidin-1-yl)-5-(1H-pyrazol-4-yl)pyrimidin-4-amine]",12.9 nM,150 nM,12.9 nM,150 nM
"COc1ccc(-c2cnccc2N2CCC(c3nc(-c4cccc(C(F)(F)F)c4)c[nH]3)CC2)cc1 [Compound 35, 3-(4-methoxyphenyl)-4-(4-{4-[3-(trifluoromethyl)phenyl]-1H-imidazol-2-yl}piperidin-1-yl)pyridine]",9 nM,,,
"Cn1cc(-c2ccc(F)c(C(F)(F)F)c2)nc1C1CCN(c2ncnc(N)c2-c2ccc(N3CCNCC3)nc2)CC1 [Compound 26, 6-{4-[4-(4-Fluoro-3-trifluoromethyl-phenyl)-1-methyl-1H-imidazol-2-yl]-piperidin-1-yl}-5-(6-piperazin-1-yl-pyridin-3-yl)-pyrimidin-4-ylamine]",1000 nM,,,
"Cn1cc(-c2ccc(F)c(C(F)(F)F)c2)nc1C1CCN(c2ncnc(N)c2-c2ccc(C(F)(F)F)cc2)CC1 [Compound 16, 6-{4-[4-(4-Fluoro-3-trifluoromethyl-phenyl)-1-methyl-1H-imidazol-2-yl]-piperidin-1-yl}-5-(4-trifluoromethyl-phenyl)-pyrimidin-4-ylamine]",21 nM,,,

# More lines, in order of falling IC50 (P70S6K (T412E mutant); read-out: IC50 p70S6K), values ahead:
IC50 (P70S6K (T412E mutant); read-out: IC50 p70S6K),IC50 (His-AKT (Full Length); read-out: IC50 AKT),IC50 (P70S6K (T412E mutant); read-out: IC50 (p70S6K enzyme)),IC50 (His-AKT (Full Length); read-out: IC50 (AKT enzyme)),Structure (SMILES)
36 nM,380 nM,,,Nc1ncnc(N2CCC(c3nc(-c4ccc(C(F)(F)F)c(F)c4)cn3CCN3CCCC3)CC2)c1C1CCC1 [Compound 258]
30 nM,2500 nM,,,"CCc1c(N)ncnc1N1CCC(c2nc(-c3ccc(F)c(F)c3)cn2CCN2CCC23COC3)CC1 [Compound 203, 6-(4-{4-(3,4-Difluoro-phenyl)-1-[2-(6-oxa-1-aza-spiro[3.3]hept-1-yl)-ethyl]-1H-imidazol-2-yl}-piperidin-1-yl)-5-ethyl-pyrimidin-4-ylamine]"
21 nM,190 nM,,,CC(=O)Nc1c(N)ncnc1N1CCC(c2nc(-c3ccc(F)c(C(F)(F)F)c3)cn2CCN2CCC2)CC1 [Compound 288]
16 nM,1000 nM,,,CCc1c(N)ncnc1N1CCC(c2nc(-c3ccc(C(F)(F)F)c(F)c3)cn2CCN2CCCC(F)(F)C2)CC1 [Compound 248]
13 nM,92 nM,,,NC(=O)c1c(N)ncnc1N1CCC(c2nc(-c3cccc(C(F)(F)F)c3)cn2CCN2CCCC2)CC1 [Compound 335]
12 nM,,,,"COc1ccc(-c2cncnc2N2CCC(c3nc(-c4cccc(C(F)(F)F)c4)c[nH]3)CC2)cc1 [Compound 34, 5-(4-Methoxy-phenyl)-4-{4-[4-(3-trifluoromethyl-phenyl)-1H-imidazol-2-yl]-piperidin-1-yl}-pyrimidine]"
11 nM,150 nM,,,"Cn1cc(-c2ccc(F)c(C(F)(F)F)c2)nc1C1CCN(c2ncnc(N)c2-c2cccc(C#N)c2)CC1 [Compound 15, 3-(4-Amino-6-{4-[4-(4-fluoro-3-trifluoromethyl-phenyl)-1-methyl-1H-imidazol-2-yl]-piperidin-1-yl}-pyrimidin-5-yl)-benzonitrile]"
5.5 nM,370 nM,,,"CCc1c(N)ncnc1N1CCC(c2nc(-c3ccc(F)c(F)c3)cn2CCN2CCOCC2)CC1 [Compound 196, 6-{4-[4-(3,4-Difluoro-phenyl)-1-(2-morpholin-4-yl-ethyl)-1H-imidazol-2-yl]-piperidin-1-yl}-5-ethyl-pyrimidin-4-ylamine]"
5.3 nM,,,,"Cn1cc(-c2ccc(F)c(C(F)(F)F)c2)nc1C1CCN(c2ncnc(N)c2-c2ccccc2Cl)CC1 [Compound 24, 5-(2-Chlorophenyl)-6-{4-[4-(4-fluoro-3-trifluoromethyl-phenyl)-1-methyl-1H-imidazol-2-yl]-piperidin-1-yl}-pyrimidin-4-ylamine]"
4.3 nM,,,,"COc1cncc(-c2c(N)ncnc2N2CCC(c3nc(-c4ccc(F)c(C(F)(F)F)c4)cn3C)CC2)c1 [Compound 47, 6-{4-[4-(4-Fluoro-3-trifluoromethyl-phenyl)-1-methyl-1H-imidazol-2-yl]-piperidin-1-yl}-5-(5-methoxy-pyridin-3-yl)-pyrimidin-4-ylamine]"
4.2 nM,71 nM,,,"CCc1c(N)ncnc1N1CCC(c2nc(-c3ccc(F)c(C(F)(F)F)c3)cn2CCN2CC(F)C2)CC1 [Compound 92, 5-ethyl-6-(4-(4-(4-fluoro-3-(trifluoromethyl)phenyl)-1-(2-(3-fluoroazetidin-1-yl)ethyl)-1H-imidazol-2-yl)piperidin-1-yl)pyrimidin-4-amine]"
2.5 nM,56 nM,,,"Cc1cc(-c2cn(CC3CN(CO)C3)c(C3CCN(c4ncnc(N)c4C(C)C)CC3)n2)ccc1F [Compound 399, {3-[2-[1-(6-Amino-5-isopropyl-pyrimidin-4-yl)-piperidin-4-yl]-4-(4-fluoro-3-methyl-phenyl)-imidazol-1-ylmethyl]-azetidin-1-yl}-methanol]"
2.4 nM,16 nM,,,CCc1c(N)ncnc1N1CCC(c2nc(-c3cccc(Cl)c3)cn2CCN2CCC2)CC1 [Compound 279]
2.2 nM,2.7 nM,,,"CC(C)N(C)CCn1cc(-c2ccc(F)c(C(F)(F)F)c2)nc1C1CCN(c2ncnc(N)c2C#N)CC1 [Compound 360, 4-Amino-6-(4-{4-(4-fluoro-3-trifluoromethyl-phenyl)-1-[2-(isopropyl-methyl-amino)-ethyl]-1H-imidazol-2-yl}-piperidin-1-yl)-pyrimidine-5-carbonitrile]"
1.8 nM,4.1 nM,,,N#Cc1c(N)ncnc1N1CCC(c2nc(-c3ccc(OC(F)F)c(F)c3)cn2CCN2CCC2)CC1 [Compound 314]
1.6 nM,2.6 nM,,,CCc1c(N)ncnc1N1CCC(c2nc(-c3ccc(F)c(C)c3)cn2CCN(CC)CC)CC1 [Compound 296]
1.4 nM,1.8 nM,,,Nc1ncnc(N2CCC(c3nc(-c4ccc(F)c(Cl)c4)cn3CCN3CCCC3)CC2)c1Br [Compound 268]
0.8 nM,1.3 nM,,,"N#Cc1c(N)ncnc1N1CCC(c2nc(-c3cnc(F)c(Cl)c3)cn2CCN2CCC2)CC1 [Compound 205, 4-Amino-6-{4-[1-(2-azetidin-1-yl-ethyl)-4-(5-chloro-6-fluoro-pyridin-3-yl)-1H-imidazol-2-yl]-piperidin-1-yl}-pyrimidine-5-carbonitrile]"
0.6 nM,1 nM,,,Nc1ncnc(N2CCC(c3nc(-c4ccc(F)c(C(F)(F)F)c4)cn3CCN3CCC3)CC2)c1Cl [Compound 218]

# Source: patent US9145392B2, “Imidazole amines as modulators of kinase activity” (Merck Patent GmbH, priority 2011, dated 2015)
